ChEMBL document CHEMBL1201862, “PubChem BioAssay data set” (2004)
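In this assay, cells in 96-well plates receive the compound at five concentrations for 48 hours. Endpoints are linearly interpolated between the surrounding concentrations. The concentration for 50% growth inhibition is given as GI50.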 Active and inactive are the calls of the source. Rule as the data show it: active = GI50 up to about 1.1 µM and inactive = higher.

What was measured:
Assay in all cases: inhibition of tumour cell growth, NCI panel, 48 h
OVCAR-3 = tested on: OVCAR-3
DU-145 = tested on: DU-145
UACC-62 = tested on: UACC-62
SK-MEL-2 = tested on: SK-MEL-2
IGROV-1 = tested on: IGROV-1
U-251 = tested on: U-251
NCI/ADR-RES = tested on: NCI/ADR-RES
SK-OV-3 = tested on: SK-OV-3
HCC 2998 = tested on: HCC 2998
UO-31 = tested on: UO-31
PC-3 = tested on: PC-3
NCI-H226 = tested on: NCI-H226
SR = tested on: SR
HOP-92 = tested on: HOP-92
SF-268 = tested on: SF-268
ACHN = tested on: ACHN
K562 = tested on: K562
786-0 = tested on: 786-0
CAKI-1 = tested on: CAKI-1
RPMI-8226 = tested on: RPMI-8226

Measured: GI50

CN(C)c1ccc(/C=C/c2ccc3ccccc3[n+]2C)cc1
inactive: OVCAR-3 2.97 µM | DU-145 1.67 µM | UACC-62 3.62 µM | SK-MEL-2 1.48 µM | IGROV-1 3.54 µM | U-251 2.38 µM | NCI/ADR-RES > 100 µM | SK-OV-3 5.73 µM | HCC 2998 4.13 µM | UO-31 2.07 µM | PC-3 1.57 µM | NCI-H226 3.13 µM | SR 1.77 µM | HOP-92 1.99 µM | SF-268 4.45 µM | ACHN 5.62 µM | 786-0 6.76 µM
active: K562 0.891 µM

COc1cc2c(cc1OC)C(=O)/C(=C/c1cc(C)c(O)c(C)c1)C2
inactive: UO-31 > 100 µM | NCI-H226 23.8 µM | HOP-92 > 100 µM
active: OVCAR-3 0.0115 µM | DU-145 < 0.01 µM | UACC-62 < 0.0168 µM | SK-MEL-2 < 0.01 µM | IGROV-1 < 0.0166 µM | U-251 < 0.01 µM | NCI/ADR-RES 0.403 µM | SK-OV-3 < 0.01 µM | HCC 2998 < 0.0407 µM | PC-3 < 0.01 µM | SR < 0.01 µM | SF-268 < 0.0143 µM | CAKI-1 0.0803 µM | ACHN 0.0603 µM | K562 < 0.01 µM | 786-0 < 0.0184 µM | RPMI-8226 < 0.01 µM

N/C(=N\Nc1nc2cc([N+](=O)[O-])ccc2o1)c1ccccn1
active: OVCAR-3 0.0422 µM | DU-145 0.182 µM | UACC-62 0.0574 µM | SK-MEL-2 0.167 µM | IGROV-1 0.147 µM | U-251 0.0966 µM | NCI/ADR-RES 0.0404 µM | SK-OV-3 0.403 µM | PC-3 0.122 µM | NCI-H226 0.418 µM | SR 0.013 µM | HOP-92 0.242 µM | SF-268 0.0738 µM | CAKI-1 0.16 µM | ACHN 0.0802 µM | K562 0.0673 µM | 786-0 0.0897 µM | RPMI-8226 0.123 µM

Clc1ccc(OCC2NC3CCC2CC3)cn1 (stereo not drawn)
inactive: OVCAR-3 60.4 µM | DU-145 59.3 µM | UACC-62 17.7 µM | SK-MEL-2 18 µM | IGROV-1 38.2 µM | U-251 16.3 µM | NCI/ADR-RES 50.1 µM | SK-OV-3 52.7 µM | HCC 2998 16.6 µM | UO-31 2.45 µM | PC-3 25.6 µM | NCI-H226 > 100 µM | SR 18.7 µM | HOP-92 35.4 µM | SF-268 51.6 µM | CAKI-1 42.5 µM | ACHN 33.3 µM | K562 17.5 µM | 786-0 18.3 µM | RPMI-8226 13.4 µM

CC1(c2cccc(Cl)c2)CC(c2cccc(Cl)c2)=C(C#N)C(=C(C#N)C#N)N1 (stereo not drawn)
inactive: OVCAR-3 10.3 µM | DU-145 15.8 µM | UACC-62 17 µM | SK-MEL-2 21.7 µM | IGROV-1 16.7 µM | U-251 16.4 µM | NCI/ADR-RES 18.9 µM | SK-OV-3 18.7 µM | HCC 2998 15.8 µM | UO-31 15.7 µM | PC-3 17.6 µM | NCI-H226 18.7 µM | SR 14.3 µM | HOP-92 6.19 µM | SF-268 4.62 µM | CAKI-1 16.5 µM | ACHN 17.8 µM | K562 14.3 µM | 786-0 15.7 µM | RPMI-8226 5.28 µM

COc1cc(C2c3cc4c(cc3OC(NCCO)C2C)OCO4)cc(OC)c1O (stereo not drawn)
inactive: OVCAR-3 5.2 µM | DU-145 9.79 µM | UACC-62 2.94 µM | SK-MEL-2 4.79 µM | IGROV-1 7.11 µM | U-251 6.08 µM | NCI/ADR-RES 4.58 µM | HCC 2998 5.81 µM | UO-31 24.5 µM | PC-3 8.79 µM | NCI-H226 49.3 µM | SR 6.12 µM | HOP-92 86.5 µM | SF-268 39.6 µM | CAKI-1 19.2 µM | 786-0 8.26 µM | RPMI-8226 3.23 µM

COn1cc(CO)c2ccccc21
inactive: OVCAR-3 40.8 µM | DU-145 53.1 µM | UACC-62 43.3 µM | SK-MEL-2 > 54.3 µM | IGROV-1 22 µM | U-251 69.7 µM | NCI/ADR-RES > 90.8 µM | SK-OV-3 > 100 µM | HCC 2998 32.8 µM | UO-31 33.1 µM | PC-3 > 75.2 µM | NCI-H226 1.57 µM | SR 31.8 µM | HOP-92 > 61.2 µM | SF-268 > 88.7 µM | CAKI-1 3.37 µM | ACHN 61.4 µM | K562 31.2 µM | 786-0 > 86.9 µM | RPMI-8226 66.5 µM

O=CNNC(=O)CSc1nc2ccc(I)cc2c(=O)n1Cc1ccccc1
inactive: OVCAR-3 21.8 µM | DU-145 43.7 µM | UACC-62 20.3 µM | SK-MEL-2 20.9 µM | IGROV-1 32.3 µM | U-251 36.6 µM | NCI/ADR-RES 31.3 µM | SK-OV-3 49.7 µM | HCC 2998 26.8 µM | UO-31 1.72 µM | PC-3 39 µM | NCI-H226 49.3 µM | SR 32.2 µM | HOP-92 25.4 µM | SF-268 35.4 µM | CAKI-1 22.2 µM | ACHN 34.8 µM | K562 8.79 µM | 786-0 31.3 µM
active: RPMI-8226 < 0.01 µM

O=C1c2ccccc2C(=O)N1CCSCC(CO)SCCN1C(=O)c2ccccc2C1=O (stereo not drawn)
inactive: DU-145 > 100 µM | UACC-62 90.2 µM | SK-MEL-2 > 100 µM | IGROV-1 > 100 µM | U-251 > 100 µM | NCI/ADR-RES 74.8 µM | SK-OV-3 > 100 µM | HCC 2998 > 100 µM | UO-31 > 100 µM | PC-3 > 100 µM | NCI-H226 > 100 µM | SR > 100 µM | HOP-92 > 100 µM | SF-268 > 100 µM | CAKI-1 > 100 µM | ACHN > 100 µM | K562 75.3 µM | 786-0 > 100 µM | RPMI-8226 80.2 µM

COc1ccc2[nH]cc(CCNC(=O)[C@H](Cc3ccccc3)NC(=O)[C@@H](NCC(F)(F)F)C(C)C)c2c1
inactive: OVCAR-3 15.6 µM | DU-145 18.3 µM | UACC-62 19.1 µM | SK-MEL-2 19.4 µM | IGROV-1 21.2 µM | U-251 21.4 µM | NCI/ADR-RES 19.1 µM | SK-OV-3 18.2 µM | UO-31 22.9 µM | PC-3 18.2 µM | NCI-H226 21.4 µM | SR 36.2 µM | HOP-92 12.1 µM | ACHN 28.2 µM | K562 29.7 µM | 786-0 18.1 µM | RPMI-8226 8.17 µM

COc1ccc(NC(C)=O)c(C(=O)CCNC(C)=O)c1
inactive: OVCAR-3 > 100 µM | DU-145 > 100 µM | UACC-62 > 100 µM | SK-MEL-2 > 100 µM | IGROV-1 > 100 µM | U-251 > 100 µM | NCI/ADR-RES > 100 µM | SK-OV-3 > 100 µM | UO-31 > 100 µM | PC-3 > 100 µM | NCI-H226 > 100 µM | SR > 100 µM | HOP-92 > 100 µM | SF-268 > 100 µM | CAKI-1 > 100 µM | ACHN > 100 µM | 786-0 > 100 µM | RPMI-8226 > 100 µM

CCOC(=O)C1c2[nH]c3ccccc3c2CCN1C(=O)c1ccc(OC)o1 (stereo not drawn)
inactive: OVCAR-3 > 10 µM | DU-145 > 10 µM | SK-MEL-2 > 10 µM | IGROV-1 > 10 µM | U-251 > 10 µM | NCI/ADR-RES > 10 µM | SK-OV-3 > 10 µM | HCC 2998 > 10 µM | UO-31 > 10 µM | PC-3 > 10 µM | NCI-H226 > 10 µM | SR > 10 µM | HOP-92 > 10 µM | SF-268 > 10 µM | CAKI-1 > 10 µM | ACHN > 10 µM | K562 > 10 µM | 786-0 > 10 µM | RPMI-8226 > 10 µM

NCCSc1nc2ccccc2s1
inactive: OVCAR-3 38.6 µM | DU-145 33.9 µM | UACC-62 31.3 µM | SK-MEL-2 26.1 µM | IGROV-1 41.5 µM | U-251 21.7 µM | NCI/ADR-RES 42.6 µM | SK-OV-3 32.1 µM | UO-31 43.8 µM | PC-3 44 µM | NCI-H226 36.6 µM | SR 25.9 µM | HOP-92 25.5 µM | SF-268 32.5 µM | CAKI-1 38.5 µM | ACHN 33.5 µM | K562 10.6 µM | 786-0 26.6 µM | RPMI-8226 31.9 µM

C#C[C@]1(O)CC[C@H]2[C@@H]3CCC4=C/C(=N/NC(=O)c5cccc6cc7ccccc7nc56)CC[C@@H]4[C@H]3CC[C@@]21CC
inactive: OVCAR-3 75.5 µM | DU-145 > 100 µM | UACC-62 95.5 µM | SK-MEL-2 > 100 µM | IGROV-1 87.9 µM | U-251 > 100 µM | NCI/ADR-RES 58.9 µM | SK-OV-3 > 100 µM | HCC 2998 > 100 µM | PC-3 62.2 µM | NCI-H226 > 100 µM | SR 38.5 µM | HOP-92 > 100 µM | SF-268 70 µM | CAKI-1 29.3 µM | ACHN > 100 µM | K562 > 100 µM | 786-0 34.4 µM | RPMI-8226 71.6 µM

O=c1[nH]c(Nc2ccc(Br)c(C(F)(F)F)c2)nc2[nH]cnc12
inactive: OVCAR-3 31.8 µM | DU-145 55 µM | UACC-62 23.8 µM | SK-MEL-2 20.2 µM | IGROV-1 40.4 µM | U-251 36.1 µM | NCI/ADR-RES > 100 µM | SK-OV-3 45.1 µM | HCC 2998 17.9 µM | UO-31 43.9 µM | PC-3 37.7 µM | NCI-H226 47.5 µM | SR 37.1 µM | HOP-92 26.4 µM | SF-268 28.5 µM | CAKI-1 50 µM | ACHN 43.4 µM | 786-0 40.1 µM | RPMI-8226 47.3 µM
